Entries after “also recorded” stand apart in the source; their conditions may differ.
Experiments:
AR variants [1] = assay: AR variant protein degradation (cycloheximide, MG132, ubiquitin IP) in CWR22Rv1 cells; assay type: cell-based; settings: FIG. 15
Description: (§1) “AR-Variants” represents a combination of all forms of AR.
(§2) To determine if the small molecule modulators affect AR-V7 protein expression via protein degradation, CWR22Rv1 and C4-2B MDVR cells were treated with cycloheximide (CHX) and the half-life of AR-V7 protein was measured.
After 0, 2, 4, and 8 hours, whole cell lysate was collected and subjected to Western blot. The half-life of AR-V7 was then calculated.
Subsequently, the whole cell lysate was collected and subjected to Western blot.
For the data shown in FIG. 15C, CWR22Rv1 cells were treated with Nic, Compound 7, or Compound 31. Subsequently, whole cell lysate was immunoprecipitated with an AR antibody and blotted with ubiquitin and AR antibodies.

wild-type AR = target: T1, wild-type AR (Homo sapiens, UniProt P10275); assay: AR transactivation luciferase assay in HEK 293 cells, wild-type AR; assay type: cell-based; settings: luciferase reporter, FIG. 5A
T1 construct: expressed in transfected cells; host or cells: HEK 293
Description: (§3) HEK 293 cells were transiently transfected with expression vectors encoding the corresponding mutant AR and an androgen-responsive luciferase reporter gene construct. […] Luciferase activity was then determined.

PSA = PSA protein expression by ELISA in C4-2 cells overexpressing AR-V7; assay type: cell-based; settings: C4-2-V7 cells, FIG. 3; for PSA expression: compound alone, ELISA; for enzalutamide-mediated PSA inhibition: in presence of enzalutamide (MDV)
Description: PSA protein expression was determined by ELISA assay. * denotes p<0.05.

C4-2BMDVR cells = assay: ELISA cell death (apoptosis) assay; assay type: cell-based; settings: FIG. 8; for cell apoptosis: compound alone, analogs compared with niclosamide
Description: To further examine the anti-cancer effects of these compounds, an ELISA cell death assay was performed.

L702H AR mutant = target: T2, L702H AR mutant (Homo sapiens, UniProt P10275, L702H); assay: AR transactivation luciferase assay in HEK 293 cells, L702H; assay type: cell-based; settings: luciferase reporter, FIG. 5F
T2 construct: expressed in transfected cells; host or cells: HEK 293
Description: as §3

AR-V12 = target: T3, AR-V12 (Homo sapiens, UniProt P10275); assay: PSA-luc assay in C4-2B cells, AR-V12; assay type: cell-based; settings: FBS, 1 μM overnight, FIG. 14F
T3 construct: expressed in transfected cells; host or cells: C4-2B
Excerpt: C4-2B cells were cotransfected with pcDNA, with or without AR-V1, AR-V3, AR-V7, AR-V9 or AR-V12, and with PSA-E/P-luciferase plasmids in FBS condition.

MDA-MB-468 cells = assay: Breast cancer cell growth, MDA-MB-468; assay type: cell-based; settings: three days, FIG. 20A
CWR22Rv1 cells = assay: Cell growth assay (cell numbers), CWR22Rv1; assay type: cell-based; settings: for cell proliferation, combination with enzalutamide (MDV): CWR22Rv1, 0.5 μM + enzalutamide, 48 hours, FIG. 7A; for cell growth: CWR22Rv1, 48 hours, increasing doses of niclosamide/analogs, FIG. 6
AR variants [2] = assay: AR variant protein degradation (cycloheximide, MG132, ubiquitin IP) in C4-2B MDVR cells; assay type: cell-based; settings: FIG. 16
Description: as §1, §2
After 0, 2, 4, and 8 hours, whole cell lysate was collected and subjected to Western blot. Half-life of AR-V7 was then calculated.
Whole cell lysate was subsequently collected and subjected to Western blot.
Whole cell lysate was immunoprecipitated with an AR antibody and blot with ubiquitin and AR antibodies.

AR = assay: Western blot of AR in CWR22Rv1 xenograft tumor lysates; assay type: in vivo; settings: CWR22Rv1 xenograft lysates vs controls, FIG. 13D
Description: (§4) Tumor volume, tumor weight, and body weight were measured. Protein lysates were isolated from the tumors and analyzed for AR and AR-V7 expression by Western blot. […] “AR-Variants” represents a combination of all forms of AR. * denotes p<0.05.
(§5) Protein lysates were isolated and analyzed for AR and AR-V7 expression by Western blot.

LuCaP 35CR PDX xenograft = assay: LuCaP 35CR PDX tumor model, oral administration; assay type: in vivo, mice
Excerpt: For the data shown in FIG. 19A, a LuCaP 35CR PDX model was established in male castrated SCID mice. […] Tumor and body weights are shown in FIGS. 19B and 19C, respectively.

[3] = system: CWR22Rv1 tumor xenografts; assay: CWR22Rv1 tumor xenograft growth in vivo
Description: as §4, §5

AR-V7 = target: T4, AR-V7 (Homo sapiens, UniProt P10275); assay: Western blot of AR-V7 in CWR22Rv1 xenograft tumor lysates; assay type: in vivo; parameters: endogenous in cells; host or cells: CWR22Rv1 prostate cancer cells (also grown as xenograft tumours); settings: CWR22Rv1 xenograft lysates vs controls, FIG. 13D
T4 sequence (P10275 1-644 isoform P10275-3): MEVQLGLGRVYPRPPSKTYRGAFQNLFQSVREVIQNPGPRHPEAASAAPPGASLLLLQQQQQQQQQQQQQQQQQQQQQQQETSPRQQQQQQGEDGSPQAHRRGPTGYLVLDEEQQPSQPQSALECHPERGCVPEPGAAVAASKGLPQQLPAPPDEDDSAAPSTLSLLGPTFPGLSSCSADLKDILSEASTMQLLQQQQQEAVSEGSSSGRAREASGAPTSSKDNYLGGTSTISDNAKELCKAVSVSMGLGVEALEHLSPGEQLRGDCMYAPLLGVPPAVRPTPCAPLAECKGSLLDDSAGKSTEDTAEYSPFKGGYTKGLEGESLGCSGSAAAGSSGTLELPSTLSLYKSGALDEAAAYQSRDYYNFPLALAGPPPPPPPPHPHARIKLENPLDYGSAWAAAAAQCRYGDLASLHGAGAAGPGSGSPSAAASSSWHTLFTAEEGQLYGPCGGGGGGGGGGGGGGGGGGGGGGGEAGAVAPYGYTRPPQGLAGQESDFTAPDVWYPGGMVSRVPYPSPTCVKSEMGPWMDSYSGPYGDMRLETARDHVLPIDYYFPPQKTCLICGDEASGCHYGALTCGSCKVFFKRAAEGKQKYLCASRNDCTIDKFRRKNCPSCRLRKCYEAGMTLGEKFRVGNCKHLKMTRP
Description: as §4, §5

Structure (SMILES) | AR variant degradation via the proteasome-ubiquitination system (AR variants [1]) | wild-type AR transactivation (wild-type AR) | PSA expression (PSA) | enzalutamide-mediated PSA inhibition (PSA) | cell apoptosis (C4-2BMDVR cells) | apoptotic cell death, combination with enzalutamide (MDV) (C4-2BMDVR cells) | L702H mutant AR transactivation (L702H AR mutant) | AR-V12-mediated PSA-luc activity (AR-V12) | breast cancer cell growth (MDA-MB-468 cells) | cell proliferation, combination with enzalutamide (MDV) (CWR22Rv1 cells) | cell growth (CWR22Rv1 cells) | AR variant degradation via the proteasome-ubiquitination system (AR variants [2]) | further results
C=CC(=O)Oc1ccc(Cl)cc1C(=O)Nc1ccc([N+](=O)[O-])cc1Cl [Compound 31] | degraded | blocked | inhibited; also recorded: strongest effect | further enhanced | further enhanced | further increased | significantly blocked | inhibited | inhibited | further inhibited | able to inhibit cell growth in a dose-dependent manner | degraded | –
O=C(Nc1ccc(C(F)(F)F)cc1Cl)c1cc(Cl)ccc1O [Compound 7] | degraded | blocked | inhibited | further enhanced | further enhanced | further increased | significantly blocked | inhibited | inhibited | further inhibited | able to inhibit cell growth in a dose-dependent manner | degraded | AR protein expression in tumors (AR): significantly inhibited; serum PSA levels compared with niclosamide (LuCaP 35CR PDX xenograft; both p.o. 150 mg/kg): to a greater extent than niclosamide; anti-tumor activity (tumor volume) compared with niclosamide (LuCaP 35CR PDX xenograft; both p.o. 150 mg/kg, 150 mg/kg): to a greater extent than niclosamide; also recorded: better anti-tumor activity than niclosamide; tumor growth (LuCaP 35CR PDX xenograft; castrated SCID mice, p.o. 150 mg/kg, 4 weeks, FIG. 19, 150 mg/kg): significantly inhibited; also recorded: suppressed; body weight (LuCaP 35CR PDX xenograft; castrated SCID mice, p.o. 150 mg/kg, 4 weeks, FIG. 19C): without inhibition of body weight; PSA protein expression in mouse sera (LuCaP 35CR PDX xenograft; p.o. 150 mg/kg, 4 weeks, FIG. 19D): inhibited; body weight ([3]; FIG. 13B): without inhibition of body weight; tumor growth ([3]; FIGS. 13A-13C): significantly inhibited; AR-V7 protein expression in tumors (AR-V7): significantly inhibited

— patent US20200009088A1, “COMPOSITIONS AND METHODS FOR TREATING ANDROGEN-INDEPENDENT CANCER” (The Regents of the University of California, priority 2017, published 2020)
